These results are taken from patent publication US12642791B2, “Inhibitors of lysyl oxidases” (UNIVERSITY OF SOUTH CAROLINA, priority 2021, dated 2026).

The subject of this data set is 4T1. Put plainly: Syngeneic TNBC tumor model. The data set is classed as in vivo, BALB/c mice. How it is done:
FIG. 43. 6403 overcomes doxorubicin resistance without major toxicity in a syngeneic mouse model, 4T1. A. Tumor growth in 4T1 model treated with doxorubicin (2 mg/kg, I.V, weekly), 6403 (50 mg/kg, P.O, daily) or their combination. Representative pictures of the tumors shown on the right panel. B. Western blot analysis of LOX in 4T1 tumors from A. C. % body weight change of mice from A. D. Blood cell counts in mice from A at the end of the experiment. 500,000 4T1 cells were injected into MFP of 6-8 weeks old female BALB/c mice. When the tumors reach 100 mm3, mice were randomly distributed to 4 groups and treated with vehicle, doxorubicin (2 mg/kg once a week, I.V.), 6403 (50 mg/kg daily, oral gavage) or the combination of doxorubicin with 6403. Tumor volumes were measured using a caliper every two days, and body weights were also recorded. After 3 weeks of treatment, blood was withdrawn, and blood cells were quantified using VetScan HM5 Hematology Analyzer.

Regarding `CC(=O)Nc1ccc(Nc2nc(-c3sc(N)nc3C)cs2)cc1` [compound 6403, N-[4-[[4-(2-amino-4-methyl-thiazol-5-yl)thiazol-2-yl]amino]phenyl]acetamide], the tumor growth result (6403 50 mg/kg P.O. daily with doxorubicin 2 mg/kg I.V. weekly, vs either alone) is recorded as “significantly reduced tumor growth”. Further, where the note is “combination, 21-day treatment”, the blood counts result is listed as “no significant change” and the body weights entry is given as “no significant change”.
